Series [1] deals with planktonic P. aeruginosa. The format is cell-based, Pseudomonas aeruginosa. As to conditions: planktonic, 4 h. On the procedure:
The microbial cell viability was then assayed using the BacTiter-Glo™ luminescent kit. […] No cell reduction was detected for the peptide GL-13 even for the maximum concentration assayed (50 μM).
(§1) Bacterial viability was assayed using the BacTiter-Glo™ microbial cell viability kit. Briefly, protein/peptides were dissolved in 10 mM sodium phosphate, 0.1M buffer, pH 7.5, serially diluted from 50 to 0.1 μM and tested in a 96-well microtiter plate containing P. aeruginosa planktonic (OD600˜0.2) or 24 h formed biofilm for 4 h at 37° C. Fifty microliters of BacTiter-Glo™ reagent was added to each well according to the manufacturer's instructions and incubated at room temperature for 15 min. Luminescence was read on a Victor3 plate reader with a 3-s integration time. Fifty percent (ED50) and total inhibitory concentrations were calculated by fitting the data to a dose-response curve.

Series [2] has as its system established P. aeruginosa biofilms. The series can be described thus: DiSC3(5) membrane depolarization assay on biofilm. The format is cell-based, Pseudomonas aeruginosa. As to conditions: maximum percentage at final incubation time, 10% Triton X-100 reference. How it is done:
Membrane depolarization was followed using the method described earlier (Torrent M. et al. 2008). Briefly, bacterial cells were grown at 37° C. to an OD600=0.2, centrifuged at 5000×g for 7 min, washed with 5 mM Hepes at pH 7.2 containing 20 mM glucose, and resuspended in 5 mM Hepes-KOH, 20 mM glucose, and 100 mM KCl at pH 7.2 to an OD600=0.05 and 200 μl were transferred to a microtiter plate for planktonic assays. For biofilm assay, 24 h formed P. aeruginosa biofilm in a 96-well microtiter plate were washed three times with sterile PBS. Afterwards P. aeruginosa biofilms were washed with 5 mM Hepes at pH 7.2 containing 20 mM glucose, and rinsed in 5 mM Hepes-KOH, 20 mM glucose, and 100 mM KCl at pH 7.2. In both cases, DiSC3(5) was added to a final concentration of 0.4 μM and changes in the fluorescence were continuously recorded after addition of peptides at 10 μM in a Victor3 plate reader. A maximum reference value for total depolarization is calculated for Triton X-100 at 10%. Alternatively, changes in the fluorescence were continuously recorded after addition of a serially diluted protein/peptides from 50 to 0.1 μM. The peptide concentration required to achieve half of total and total membrane depolarization after 40 min incubation time was estimated from nonlinear regression analysis as previously described (Torrent M. et al. 2010)
(§2) Thereupon, the antimicrobial mechanism of action of the RNase 3 derived peptide on P. aeruginosa biofilms was further characterized with the depolarization and permeabilization assays. As applied for the P. aeruginosa planktonic culture, the fluorescent DisC3(5) assay was also used here in order to monitor the depolarization activity of the studied protein and peptides against established biofilms. Therefore, we have measured the half depolarization action (ED50), and the total depolarization activity expressed as a percentage (Table 7). […] Similar results were obtained for the Sytox Green permeabilization assay, where the total permeabilization effect was hindered for all the AMPs tested, and between two to ten times higher concentrations were required to achieve half of the biofilm cell permeabilizing effect in comparison to the planktonic cells.

A short description of series [3]: Biofilm cell mortality, BacTiter-Glo luminescent assay. The format is cell-based, Pseudomonas aeruginosa. As to conditions: 24 h formed biofilm; 4 h at 37° C.; 10% Triton X-100 as maximum reference; N.D. = not detected at 50 μM; read-out: Biofilm cell mortality (%max). On the procedure: as §1
As a first approach, the biofilm cell viability was monitored using the BacTiter-Glo™ luminescent assay. Therefore, the antimicrobial action of the studied AMPs was determined on already established P. aeruginosa biolfilms (FIG. 1 and Table 6). […] However, for all the active peptides, the concentrations needed to produce an equivalent effect in biofilms were between 2 to 10 times higher than in planktonic cultures. […] At the same time, we applied the crystal violet technique to assess the peptide ability to disperse pre-established P. aeruginosa biofilms.
(§3) Biofilm formation assay was modified from the previously described protocol (Huedo P. et al. 2014). Briefly, overnight cultures of P. aeruginosa were centrifuged at 5000×g for 5 min, washed and adjusted to an OD600=0.1 in tryptic soy medium (TSB). Two hundred microliters of the bacterial suspension were dispensed in each well of a polystyrene 96-well microtiter plate (Greiner Bio-one, France). The plate was incubated at 37° C. on an orbital shaker (30 rpm). The media was exchanged with fresh pre-warmed TSB after 4 h, in order to remove the non-attached bacteria. After 24 h incubation, the formation of biofilm was then evaluated using the crystal violet staining technique (Stepanovic S. et al. 2000). Briefly, the plates were washed three times with PBS, fixed at 60° C. for 1 h, and stained for 15 min with 200 μl of 0.1% crystal violet. After the dye was discarded, plates were rinsed in PBS and allowed to dry for 30 min at 37° C. Crystal violet was dissolved in 250 μl of 95% ethanol for 15 min, and the OD570 of the extracted dye was measured using a Victor3 plate reader (Perkin-Elmer, Waltham, Mass.).

The test system of series [4] is pre-established P. aeruginosa biofilm. Briefly: Biofilm eradication assay, crystal violet staining. The format is cell-based, Pseudomonas aeruginosa. On the procedure:
Following, the biofilm eradication activity was determined (FIG. 1 and Table 6). […] Moreover, the biofilm eradication activity of all the tested reference peptides was well above the maximum concentration tested (50 μM), except for RN3(5-17P22-36) which was able to eradicate the biofilm close to 50 μM.
as §3
Biofilms were grown as above. Twenty-four hour formed P. aeruginosa biofilm was washed three times with sterile PBS, and rinsed with 10 mM sodium phosphate buffer pH 7.5. Each well was treated with increasing protein/peptide concentrations (from 0.01 to 50 μM) and incubated at 37° C. for 4 h. The biofilm eradication was then evaluated using the crystal violet staining technique (Stepanovic S. et al. 2000). The ability of the antimicrobial peptides to disperse and reduce the biofilm mass of preformed biofilms was calculated. The peptide concentration required to achieve total preformed biofilm eradication after 4 h incubation time was estimated. A maximum reference value was taken for Triton X-100 at 10%. The minimum biofilm eradication concentration (MBEC), defined as the protein/peptide concentration where the 99.9% of the biofilm mass is eradicated was estimated.

In series [5] the test system is planktonic P. aeruginosa. Briefly: SYTOX Green membrane permeabilization assay, planktonic. In kind it is cell-based, Pseudomonas aeruginosa. Particulars: 10% Triton X-100 as maximum reference. How it is done: Further insight into the membrane-permeabilizing effect of the selected AMPs against P. aeruginosa was evaluated by the Sytox Green assay. Local membrane disturbances allow the cell uptake of the fluorescent Sytox Green dye that subsequently stains the cell nucleic acids; the fluorescence increase is registered to monitor the cell membrane permeabilization. Therefore, the half permeabilization action (ED50) was measured, and the total permeabilization activity expressed as a percentage (Table 5). […] On the other hand, WY-12 and CA-M required a 6- to 7-fold greater concentration than RNase 3 to produce half of their permeabilizing effect.
(§4) Membrane permeabilization was followed using the method SYTOX Green Fluorescence membrane permeabilization assay. In the planktonic assay, bacterial cells were grown at 37° C. to an OD600=0.2, centrifuged at 5000×g for 5 min, and resuspended in 1×PBS to an OD600=0.2. An aliquot of 200 μl was then transferred to a microtiter plate. For biofilm assay, 24 h formed P. aeruginosa biofilm in a 96-well microtiter plate were washed three times with sterile PBS. SYTOX Green was added to a final concentration of 1 μM and incubated 15 min in darkness. Changes in the fluorescence were continuously recorded after addition of a serially diluted protein/peptides from 50 to 0.1 μM in a Victor3 plate reader. The peptide concentration required to achieve half of total and total membrane permeabilization achieved after 40 min was estimated from nonlinear regression analysis as previously described (Pulido D. et al. Antimicrob Agents Chemother 2013). A maximum reference value was taken for Triton X-100 at 10%.

Series [6] concerns planktonic P. aeruginosa. The series can be described thus: Minimum agglutination concentration (MAC) assay. In kind it is cell-based, Pseudomonas aeruginosa. As to conditions: 1 h at room temperature, mean ± SEM. How it is done:
Bacterial agglutination of RNase 3 is important for the antimicrobial activity of the protein. Therefore, the peptide capability to agglutinate P. aeruginosa cells was assayed by the minimum agglutination concentration assay (MAC) (Table 3).
Bacterial cells were grown in LB at 37° C. to an OD600=0.2, centrifuged at 5000×g for 2 min and resuspended in 10 mM Tris-HCl buffer, 0.1 M NaCl, pH 7.5. An aliquot of 100 μl of the bacterial suspension was treated with increasing protein/peptide concentrations (from 0.01 to 50 μM) and incubated at room temperature for 1 h. The aggregation behavior was observed by visual inspection and the agglutinating activity is expressed as the minimum agglutinating concentration of the sample tested, as previously described (Torrent M. et al. 2012).

Series [7] has as its system established P. aeruginosa biofilms. Briefly: SYTOX Green membrane permeabilization assay on biofilm. The format is cell-based, Pseudomonas aeruginosa. Particulars: maximum percentage at final incubation time, 10% Triton X-100 reference. How it is done:
as §4, §2

Series [8] deals with biofilm-producing microorganism. Briefly: Antimicrobial and antibiofilm activities of peptides from the design process. In kind it is cell-based. Particulars: peptide from the design process. From the text:
Furthermore, even though the peptide has been designed with the RNAse 3 sequence as starting point, the peptide has surprising advantages in respect of the RNase 3 due to the specific deletion and selection of the amino acids conforming the peptide amino acid. […] This is the case of the peptide ECP(7-13)(32-36) with sequence SEQ ID NO: 7.

Values joined by “and” are separate entries in the source; they are usually repeats but may differ in a detail not shown here. Identical values can stand only once. Residues, ends and D or L forms follow the SMILES beside them.

In the case of `CC[C@H](C)[C@H](NC(=O)[C@H](C)NC(=O)[C@H](CCCNC(=N)N)NC(=O)[C@H](CCSC)NC(=O)[C@H](C)NC(=O)[C@@H](NC(=O)[C@@H](NC(=O)[C@H](CCCNC(=N)N)NC(=O)[C@@H]1CCCN1C(=O)[C@H](CO)NC(=O)[C@@H](NC(=O)[C@H](Cc1c[nH]cn1)NC(=O)[C@H](CCC(N)=O)NC(=O)[C@@H](NC(=O)[C@H](C)NC(=O)[C@H](Cc1ccccc1)NC(=O)[C@H](Cc1c[nH]c2ccccc12)NC(=O)[C@H](CCC(N)=O)NC(=O)[C@H](C)NC(=O)[C@H](CCCNC(=N)N)NC(=O)[C@@H](NC(=O)[C@H](Cc1ccccc1)NC(=O)[C@@H]1CCCN1C(=O)[C@@H](N)CCCNC(=N)N)[C@@H](C)O)[C@@H](C)CC)[C@@H](C)CC)[C@@H](C)O)[C@@H](C)CC)C(=O)N[C@@H](CC(N)=O)C(=O)N[C@@H](CC(N)=O)C(=O)N[C@@H](Cc1ccc(O)cc1)C(=O)N[C@@H](CCCNC(=N)N)C(=O)N[C@@H](Cc1c[nH]c2ccccc12)C(=O)N[C@@H](CCCNC(=N)N)C(N)=O` [RN3(5-17P22-36)] (H-RPFTRAQWFAIQHISPRTIAMRAINNYRWR-NH2; N-terminus assumed), the concentration for half-maximal inhibition (IC50) with planktonic P. aeruginosa [1] was determined as 1250 ± 100 nM. The “Depolarization Mean % ± SEM” value in series [2] is 73.51 ± 1.94%. Also, the mortality in series [3] came to 96.4 ± 2.41%. In addition, in series [4] (24 h formed biofilm, 4 h at 37° C., 10% Triton X-100 as maximum reference, listed as the peptide of the invention), the “Biofilm eradication (%max)” value is “totally disperse the cell community layer”. In addition, the “biofilm eradication concentration (MBEC)” value in series [4] (total eradication of preformed biofilm, 4 h, max tested 50 μM) is around 50 µM. Besides, in the series with planktonic P. aeruginosa [5], the Permeabilization %max is listed as 63.63 ± 1.42%. The “MAC (minimum agglutinating activity)” value in the series with planktonic P. aeruginosa [6] is 1.5 µM and 1.50 ± 0.08 µM. Further, in series [7], the “Permeabilization Mean % ± SEM” value is 64.26 ± 5.44%.

For the compound “ECP(7-13)(32-36): design-process peptide with sequence SEQ ID NO: 7, lacking the antimicrobial and antibiofilm activities (RAQWFAINYRWR; peptide ECP(7-13)(32-36))”, the “antimicrobial and antibiofilm activities” value in series [8] was “did not display the antimicrobial and antibiofilm activities”.

The term IC50 denotes the concentration at which inhibition is half-maximal. By mortality is commonly meant the share of the test organisms that died.

The values are drawn from patent US10487117B2, “Antimicrobial peptide for nosocomial infections” (priority 2015, dated 2019).
